We go through 8 molecules from BindingDB's records for doi:10.1016/j.bmcl.2016.04.011 (The University of Jordan, 2016).

A short description of test [1]: Inhibition of EGFR in human MDA231 cells assessed as growth inhibition after 24 hrs by MTT assay. On the technique in general: Formazan colour is commonly taken as a measure of viable cells.
Test [2] in a line: Inhibition of PI3Kalpha in human HCT116 cells coexpressing PI3Kalpha H1047R mutant assessed as growth inhibition after 24 hrs by MTT assay.

Each structure is given as a SMILES string.

On to `CC(=O)c1cccc(NC(=O)c2cc3ccccc3[nH]2)c1`, for which the values for the IC50 in test [1] and in test [2] were 57 µM and 64 µM, respectively.

For the molecule `CC(=O)c1ccc(NC(=O)c2cc3ccccc3[nH]2)cc1`, the values for the IC50 in test [1] and in test [2] were 50 µM and 61 µM, respectively.

Regarding `O=C(c1ccccc1)c1cccc(NC(=O)c2cc3ccccc3[nH]2)c1`, the IC50 (commonly the midpoint of a concentration-inhibition curve) came to 45 µM in test [1] and 55 µM in test [2].

On to `O=C(c1ccccc1)c1ccc(NC(=O)c2cc3ccccc3[nH]2)cc1`, for which the IC50 was determined as 49 µM in test [1] and 54 µM in test [2].

For `CC(O)c1cccc(NC(=O)c2cc3ccccc3[nH]2)c1` (stereo unspecified), the half-inhibitory concentration (IC50) in test [1] was found to be 34 µM; in test [2], 38 µM.

`CC(O)c1ccc(NC(=O)c2cc3ccccc3[nH]2)cc1` (stereo unspecified): the IC50 in test [1] is 35 µM; in test [2], 37 µM.

For `O=C(Nc1cccc(C(O)c2ccccc2)c1)c1cc2ccccc2[nH]1` (stereo unspecified), the results for the IC50 in test [1] and in test [2] were 15 µM and 19 µM, respectively.

In the case of `O=C(Nc1ccc(C(O)c2ccccc2)cc1)c1cc2ccccc2[nH]1` (stereo unspecified), the IC50 in test [1] was 38 µM; in test [2], 44 µM.
